Results published in patent publication US4311699A, “Aminoacid derivatives of cephalosporin compounds” (priority 1980, dated 1982).
Values after ≈ are worked out from the molar mass of the structure shown. Where two headings read alike, the source gives them in different places.

Legend:
Experiment in all cases: in vitro antibacterial activity, minimal inhibitory concentration
Format in all cases: cell-based
[1] = tested on: E. coli Brig; conditions: for MIC: Escherichia coli
Description: (§1) The compounds of the invention are new chemical compounds that are used as pharmacological agents and especially as broad spectrum antibacterial agents. They are active in vitro against strains of both gram-positive and gram-negative bacteria.
(§2) Minimal Inhibitory Concentration (μg/ml)

[2] = tested on: E. coli Vogel; conditions: for MIC: Escherichia coli
Description: as §1, §2

[3] = tested on: Entero. cloacae; conditions: for MIC: Enterobacter cloacae
Description: as §1, §2

[4] = tested on: Klebs. pneu.
Description: as §1, §2

[5] = tested on: Prot. vulg.
Description: as §1, §2

[6] = tested on: Pseudomonas #28; conditions: for MIC: read-out: Minimal Inhibitory Concentration
Description: as §1, §2

[7] = tested on: Pseudomonas BRK 12-4-4; conditions: Pseudomonas BRK 12-4-4, in vitro; for MIC: BRK1244
Description: as §1, §2

[8] = tested on: Pseudomonas UI 18; conditions: Pseudomonas UI 18, in vitro; for MIC: UI18
Description: as §1, §2

[9] = tested on: Serr. marces.
Description: as §1, §2

[10] = tested on: Staph. aureus S18733; conditions: for MIC: Staphylococcus aureus
Description: as §1, §2

[11] = tested on: Staph. aureus UC-76; conditions: Staph. aureus UC-76, in vitro; for MIC: Staphylococcus aureus, UC76
Description: as §1, §2

[12] = tested on: Strep. fec.
Description: as §1, §2

Row | Compound | MIC [1] [µg/mL] | MIC [2] [µg/mL] | MIC [3] [µg/mL] | MIC [4] [µg/mL] | MIC [5] [µg/mL] | MIC ([6]; Pseudomonas #28, in vitro) [µg/mL] | MIC [7] [µg/mL] | MIC [8] [µg/mL] | MIC [9] [µg/mL] | MIC [10] [µg/mL] | MIC [11] [µg/mL] | MIC [12] [µg/mL] | other results
1 | CC(=O)OCC1=C(C(=O)O)N2C(=O)[C@@H](NC(=O)[C@H](NC(=O)c3cnc(-c4ccc(NC(=O)[C@@H](C)N)cc4)nc3O)c3ccccc3)[C@H]2SC1 [Example 18, N-[2-[4-(D-Alanylamino)phenyl]-4-hydroxy-5-pyrimidinylcarbonyl]-7-[D-2-amino-2-phenylacetamido]-3-acetoxymethyl-3cephem-4-carboxylic acid] | 50 (≈ 72.5 µM) | 12.5 (≈ 18.1 µM) | 50 (≈ 72.5 µM) | 25 (≈ 36.2 µM) | 25 (≈ 36.2 µM) | 3.1 (≈ 4.49 µM) | 6.3 (≈ 9.13 µM) | 1.6 (≈ 2.32 µM) | > 50 | 6.3 (≈ 9.13 µM) | 1.6 (≈ 2.32 µM) | 25 (≈ 36.2 µM) | 
2 | CC(=O)NC(C)C(=O)Nc1ccc(-c2ncc(C(=O)N[C@@H](C(=O)N[C@@H]3C(=O)N4C(C(=O)O)=C(COC(C)=O)CS[C@H]34)c3ccc(O)cc3)c(O)n2)cc1 (mixture of isomers) [Example 9, N-[2-[4-(N-Acetyl-DL-alanylamino)phenyl]-4-hydroxy-5-pyrimidinylcarbonyl]-7-[D-2-amino-2-(4-hydroxyphenyl)acetamido]-3-acetoxymethyl-3-cephem-4-carboxylic acid] | 50 | 12.5 | 50 | 12.5 | 12.5 | 1.6 | 3.1 | 3.1 | > 50 | 6.3 | 3.1 | 50 | 
3 | CC(=O)OCC1=C(C(=O)O)N2C(=O)[C@@H](NC(=O)[C@H](NC(=O)c3cnc(-c4ccc(NC(=O)C5CCC(=O)N5)cc4)nc3O)c3ccccc3)[C@H]2SC1 (mixture of isomers) [Example 6, N-[2-]4-((5-oxo-DL-prolyl)amino)phenyl]-4-hydroxy-5-pyrimidinylcarbonyl]-7-[D-2-amino-2-phenylacetamido]-3-acetoxymethyl-3-cephem-4-carboxylic acid] | 50 | 12.5 | 50 | 25 | 50 |  | 12.5 | 12.5 | > 50 | 6.3 | 1.6 | 50 | MIC ([6]; Pseudomonas): 6.3 µg/mL
4 | CC(=O)N[C@H](C)C(=O)Nc1ccc(-c2ncc(C(=O)N[C@@H](C(=O)NC3C(=O)N4C(C(=O)O)=C(CSc5nnnn5CC(=O)O)CSC34)c3ccc(O)cc3)c(O)n2)cc1 (stereo partly drawn) [Example 37, N-[2-[4-(N-Acetyl-D-alanylamino)phenyl]-4-hydroxy-5-pyrimidinylcarbonyl)-7-[D-2amino-2-(4-hydroxyphenyl)acetamido]-3-[[(1-carboxymethyl-1H-tetrazol-5-yl)thio]methyl]-3-cephem-4-carboxylic acid] | 12.5 (≈ 14.7 µM) | 3.1 (≈ 3.66 µM) | 12.5 (≈ 14.7 µM) | 12.5 (≈ 14.7 µM) | 1.6 (≈ 1.89 µM) | 12.5 (≈ 14.7 µM) | 12.5 (≈ 14.7 µM) | 6.3 (≈ 7.43 µM) | > 50 | 25 (≈ 29.5 µM) | 25 (≈ 29.5 µM) | > 50 | 
5 | CC(=O)NC(C)(C)C(=O)Nc1ccc(-c2ncc(C(=O)N[C@@H](C(=O)NC3C(=O)N4C(C(=O)O)=C(CSc5nnnn5C)CSC34)c3ccccc3)c(O)n2)cc1 (some centres unmarked) [Example 28] | 12.5 (≈ 15.6 µM) | 3.1 (≈ 3.87 µM) | 6.3 (≈ 7.86 µM) | 6.3 (≈ 7.86 µM) | 25 (≈ 31.2 µM) | 3.1 (≈ 3.87 µM) | 6.3 (≈ 7.86 µM) | 6.3 (≈ 7.86 µM) | 50 (≈ 62.4 µM) | 6.3 (≈ 7.86 µM) | 3.1 (≈ 3.87 µM) | 50 (≈ 62.4 µM) | 
6 | CC(=O)N1C[C@H](O)C[C@H]1C(=O)Nc1ccc(-c2ncc(C(=O)N[C@@H](C(=O)NC3C(=O)N4C(C(=O)O)=C(CSc5nnnn5C)CS[C@H]34)c3ccccc3)c(O)n2)cc1 (stereo partly drawn) [Example 30, N-[2[4-(N-Acetyl-L-hydroxyprolylamino)phenyl]-4-hydroxy-5-pyrimidinylcarbonyl]-7-[D-2-amino2-phenylacetamido]-3-[[(1-methyl-1H-tetrazol-5-yl)thio]methyl]-3-cephem-4-carboxylic acid] |  |  |  |  |  |  |  |  |  |  |  |  | Minimal Inhibitory Concentration [1]: 12.5 µg/mL; Minimal Inhibitory Concentration [2]: 3.1 µg/mL; Minimal Inhibitory Concentration [3]: 6.3 µg/mL; Minimal Inhibitory Concentration [4]: 3.1 µg/mL; Minimal Inhibitory Concentration [5]: 25 µg/mL; Minimal Inhibitory Concentration ([6]; Pseudomonas #28, in vitro): 6.3 µg/mL; Minimal Inhibitory Concentration [7]: 12.5 µg/mL; Minimal Inhibitory Concentration [8]: 6.3 µg/mL; Minimal Inhibitory Concentration [9]: > 50 µg/mL; Minimal Inhibitory Concentration [10]: 12.5 µg/mL; Minimal Inhibitory Concentration [11]: 3.1 µg/mL; Minimal Inhibitory Concentration [12]: > 50 µg/mL
7 | C[C@@H](N)C(=O)Nc1ccc(-c2ncc(C(=O)N[C@@H](C(=O)NC3C(=O)N4C(C(=O)O)=C(CSc5nnnn5CC(=O)O)CSC34)c3ccccc3)c(O)n2)cc1 (stereo partly drawn) [Example 38, N-[2-[4-(D-Alanylamino)phenyl]-4-hydroxy-5-pyrimidinylcarbonyl]-7-[D-2-amino-2-phenylacetamido]-3-[[(1-carboxymethyl-1H-tetrazol-5-yl)thio]-methyl]-3-cephem-4-carboxylic acid] | 6.3 (≈ 7.98 µM) | 0.8 (≈ 1.01 µM) | 6.3 (≈ 7.98 µM) | 6.3 (≈ 7.98 µM) | 0.8 (≈ 1.01 µM) | 3.1 (≈ 3.92 µM) | 3.1 (≈ 3.92 µM) | 3.1 (≈ 3.92 µM) | 25 (≈ 31.7 µM) | 12.5 (≈ 15.8 µM) | 6.3 (≈ 7.98 µM) | > 50 | 
8 | CC(=O)N[C@@H](C(=O)Nc1ccc(-c2ncc(C(=O)N[C@@H](C(=O)NC3C(=O)N4C(C(=O)O)=C(CSc5nnnn5C)CSC34)c3ccccc3)c(O)n2)cc1)C(C)C (some centres unmarked) [Example 29] | 12.5 (≈ 15.3 µM) | 1.6 (≈ 1.96 µM) | 12.5 (≈ 15.3 µM) | 3.1 (≈ 3.8 µM) | 6.3 (≈ 7.72 µM) | 6.3 (≈ 7.72 µM) | 12.5 (≈ 15.3 µM) | 6.3 (≈ 7.72 µM) | 50 (≈ 61.3 µM) | 3.1 (≈ 3.8 µM) | 1.6 (≈ 1.96 µM) | 25 (≈ 30.6 µM) | 
9 | CC(=O)NCC(=O)Nc1ccc(-c2ncc(C(=O)N[C@@H](C(=O)N[C@@H]3C(=O)N4C(C(=O)O)=C(COC(C)=O)CS[C@H]34)c3ccccc3)c(O)n2)cc1 [Example 7, N-[2-[4-(N-Acetylglycylamino)phenyl]-4-hydroxy-5-pyrimidinylcarbonyl]-7-[D-2-amino-2-phenylacetamido]-3-acetoxymethyl-3-cephem-4-carboxylic acid] |  |  | 25 (≈ 34.8 µM) | 6.3 (≈ 8.78 µM) |  |  |  | 12.5 (≈ 17.4 µM) |  |  |  | 50 (≈ 69.7 µM) | 
10 | CC(=O)N1C[C@H](O)C[C@H]1C(=O)Nc1ccc(-c2ncc(C(=O)N[C@@H](C(=O)NC3C(=O)N4C(C(=O)O)=C(CSc5nnnn5CC(=O)O)CS[C@H]34)c3ccccc3)c(O)n2)cc1 (stereo partly drawn) [Example 36, N-[2-[4-(N-Acetyl-L-hydroxyprolylamino)phenyl]-4-hydroxy-5-pyrimidinylcarbonyl]-7-[D-2-amino-2-phenylacetamido]-3-[[(1-carboxymethyl-1H-tetrazol-5-yl)thio]methyl]-3-cephem-4-carboxylic acid] |  |  |  |  |  |  |  |  |  |  |  |  | Minimal Inhibitory Concentration [1]: 12.5 µg/mL; Minimal Inhibitory Concentration [2]: 6.3 µg/mL; Minimal Inhibitory Concentration [3]: 12.5 µg/mL; Minimal Inhibitory Concentration [4]: 6.3 µg/mL; Minimal Inhibitory Concentration [5]: 6.3 µg/mL; Minimal Inhibitory Concentration [7]: 12.5 µg/mL; Minimal Inhibitory Concentration [9]: 50 µg/mL; Minimal Inhibitory Concentration [10]: 25 µg/mL; Minimal Inhibitory Concentration [11]: 12.5 µg/mL; Minimal Inhibitory Concentration [12]: > 50 µg/mL
